Data as given in patent publication US10899776B2, “Antiviral and antibacteria agents based on quaternary ammonium compound complexed with boric acid and its derivatives” (B-Organic Films Corp, priority 2015, dated 2021).
Read-outs that look alike come from different tables or passages of the source.

Tested on: L. vannamei shrimp gene expression
Protocol: RNA is extracted using TRIzol® and the Qiagen RNeasy® Mini Kit (Qiagen, Germantown, Md., USA). Shrimp samples immersed in TRIzol® are placed in the FastPrep®-24 (MP Biomedicals LLC, Solon, Ohio, USA) and homogenized during 4° C. for 40 s pulses at 6 m/s. A volume of 200 μL of chloroform is added to a 1.5 mL RNase free tube containing the homogenate material and inverted 15 times. Samples are incubated at room temperature for 3 min before centrifuged at 8000 g for 15 min at 4° C. using the Eppendorf centrifuge. The supernatant is carefully transferred into a new 1.5 mL RNase free tube and the extraction continued following the manufacturer's protocol.
The quality and quantity of RNA are determined by the NanoDrop™ 1000 spectrophotometer (Thermo Fisher Scientific, Waltham, Mass., USA) and Bio-Rad™ (Bio-Rad, Hercules, Calif., USA) using denatured gel electrophoresis with formaldehyde and buffer MOPS 1× (Sambrook, J. 1989. in: «Molecular cloning—a laboratory manual, 2nd ed». J. Sambrook, E. F. Fritsch, T. Maniatis Eds. Cold Spring Harbor, N.Y.: Cold Spring Harbor Laboratory Press).
Microarrays are designed based on publically available gene sequences and ESTs determined from cDNA libraries representing multiple tissues of male and female L. vannamei shrimp, and/or of various physiological conditions.
In total, a length of oligonucleotides about of 61440-mer is included in this study: 39592 shrimp ESTs; 1216 Quality control spots; 112 positive control Alexa-555 dye; 80 positive control Alexa 647 dye; 20320 Unigenes; 16 astringent positive control alexa-555: 16 astringent positive control Alexa-647 dye and 88 negative control empty are submitted to the MYcroarray (University of Michigan, Chemical Engineering Department) for printing on aminosaline glass slides. The exposure and reference sample RNAs are adjusted to final volume 19 μL with oligo d(T) (2 μg/μL) and random primers. (1 μg/μL) in water molecular biology grade. The samples are incubated at 70° C. for 10 min and are then chilled in ice. The samples are mixed finally with 5× Reaction Buffer Superscript II kit (Invitrogen, Life technologies, Carlsbad Calif., USA): 25 mM MgCl2; aminoallyl-dNTP with dUTP (3:1); 0.1 M DTT and 200 U/μL Superscript II Reverse Transcriptase. The mix is incubated at 25° C. for 10 min and then at 42° C. for 2 hours. RNA hydrolysis is made with 5 μL of NaOH 1 N and 1 μL of EDTA 0.5 M. The mixture is incubated at 65° C. for 10 min, and then added 25 μL of HEPES 1 M at pH 7.5. […] The aminoallyl-DNA (aa-DNA) is purified using QIAquick™ (Qiagen, Duesseldorf, Germany). A volume of 7 μL of sodium acetate 3 M and 400 μL binding buffer supplied by the Kit are added. The mixture is allowed to stand 5 min according to the manufacturer's instructions for purification. The eluted aa-DNA is concentrated in a Vacufuge™ until dry and is resuspended in 4.5 μL of sodium bicarbonate 100 mM (pH 9.0). The reaction is conducted in darkness at room temperature overnight. The aa-DNA labeled is purified using QIAquick™ (Qiagen, Duesseldorf, Germany) and eluted with 50 uL water. The aa-DNA labeled is quantified in a Nanodrop™ 1000 spectrophotometer (Thermo Fisher Scientific, Waltham, Mass., USA).
After completely drying in a Vacufuge concentrator, the aa-DNA labeled is resuspended in hybridation mixture containing: ˜0.1 optical density units of aa-DNA labeled from each sample; SSC (5×) buffer; 0.1% SDS; 1× buffer TE. The hybridation mixture is desaturated at 94° C. for 5 min and finally at 65° C. for 30 s. The mixture is placed in the microarray slide previously placed in a chamber for microarray hybridization and covered using a RNase-free plastic coverslip (Hybrislip, Schleicher & Schuell, HS40—40×22 mm; HS22—22×22 mm via Thomas Scientific). The hybridation chamber is incubated at 42° C. overnight.
The slide is placed in a 50 mL conical tube for the first wash and a volume of 50 mL of SSC (1×) buffer and of SDS 0.05% are added for 1 min.

[1] = 2-Down regulated genes, feed 5 mg/g
[2] = 2-Up regulated genes, feed 5 mg/g
[3] = 2-fold Down-regulated genes (treated) versus all genes
[4] = 2-fold Up-regulated genes (treated) versus all genes
[5] = diets supplemented with the complex
[6] = feed 5 mg/g, 14 days, of 262 2-fold Down-regulated genes
[7] = feed 5 mg/g, 14 days, of 583 2-fold Up-regulated genes
[8] = treated vs control shrimp, 57,193 spots available to analysis

C[N+](C)(C)CCOB1OB2OB(O1)OB1OB(O2)O1.[Cl-] [choline/pentaborate complex]
# Enzymes, Aminoacyl-tRNA biosynthesis [1]: 3
# Enzymes, Ascorbate and aldarate metabolism [1]: 2
# Enzymes, Glycolysis/Gluconeogenesis [1]: 3
# Enzymes, Oxidative phosphorylation [1]: 4
# Enzymes, Pentose and glucuronate interconversions [1]: 2
# Enzymes, Pentose phosphate pathway [1]: 5
# Enzymes, Phenylalanine metabolism [1]: 1
# Enzymes, Phenylpropanoid biosynthesis [1]: 1
# Enzymes, Purine metabolism [1]: 3
# Enzymes, Starch and sucrose metabolism [1]: 2
# Genes, Aminoacyl-tRNA biosynthesis [1]: 3
# Genes, Ascorbate and aldarate metabolism [1]: 3
# Genes, Glycolysis/Gluconeogenesis [1]: 3
# Genes, Oxidative phosphorylation [1]: 6
# Genes, Pentose and glucuronate interconversions [1]: 3
# Genes, Pentose phosphate pathway [1]: 5
# Genes, Phenylalanine metabolism [1]: 3
# Genes, Phenylpropanoid biosynthesis [1]: 3
# Genes, Purine metabolism [1]: 4
# Genes, Starch and sucrose metabolism [1]: 5
# Enzymes, Amino sugar and nucleotide Sugar metabolism [2]: 7
# Enzymes, Cytochrome P450 [2]: 3
# Enzymes, Glutathione metabolism [2]: 5
# Enzymes, Glycolysis [2]: 8
# Enzymes, Oxidative phosphorylation [2]: 6
# Enzymes, Pentose phosphate pathway [2]: 4
# Enzymes, Purine metabolism [2]: 7
# Enzymes, Pyruvate metabolism [2]: 6
# Enzymes, Valine, leucine and isoleucine degradation [2]: 6
# Genes, Amino sugar and nucleotide Sugar metabolism [2]: 8
# Genes, Cytochrome P450 [2]: 6
# Genes, Glutathione metabolism [2]: 7
# Genes, Glycolysis [2]: 8
# Genes, Oxidative phosphorylation [2]: 18
# Genes, Pentose phosphate pathway [2]: 5
# Genes, Purine metabolism [2]: 14
# Genes, Pyruvate metabolism [2]: 6
# Genes, Valine, leucine and isoleucine degradation [2]: 6
Fisher's exact test GO term Extracellular region part [3]: 5.69%
Fisher's exact test GO term Gas transport [3]: 2.03%
Fisher's exact test GO term Oxygen transporter activity [3]: 2.03%
Fisher's exact test GO term Photoreceptor cell differentiation [3]: 2.43%
Fisher's exact test GO term Regulation of protein metabolic process [3]: 10.56%
Fisher's exact test GO term Starch metabolic process [3]: 2.03%
Fisher's exact test GO term Sucrose metabolic process [3]: 2.03%
Fisher's exact test GO term Toll-like Receptor for signaling pathway [3]: 1.62%
Fisher's exact test GO term Translation factor activity, nucleic acid binding [3]: 4.47%
Fisher's exact test GO term Transporter activity [3]: 10.56%
Fisher's exact test GO term extracellular region [3]: 9.75%
Fisher's exact test GO term extracellular space [3]: 4.87%
Fisher's exact test GO term Actin Cytoskeleton [4]: 4.62%
Fisher's exact test GO term Calcium Ion Binding [4]: 4.25%
Fisher's exact test GO term Cytoskeletal Protein Binding [4]: 5.55%
Fisher's exact test GO term Hydrogen Transport [4]: 4.81%
Fisher's exact test GO term Ion Transport [4]: 8.15%
Fisher's exact test GO term Monosaccharide Metabolic Process [4]: 4.10%
Fisher's exact test GO term Monovalent Inorganic Cation Transport [4]: 5.92%
Fisher's exact test GO term Positive Regulation of Biosynthetic Process [4]: 3.70%
Fisher's exact test GO term Positive Regulation of Cellular Biosynthetic Process [4]: 3.70%
Fisher's exact test GO term Proton Transport [4]: 4.81%
number of immune related genes that are over-expressed (2-fold Up-regulated, GO term 0006955, feed 5 mg/g, 14 days): at least 33
number of modulated genes associated to Biogenesis [5]: 59
number of modulated genes associated to Biological regulation [5]: 73
number of modulated genes associated to Cellular process [5]: 159
number of modulated genes associated to Developmental process [5]: 40
number of modulated genes associated to Localization [5]: 66
number of modulated genes associated to Metabolic process [5]: 166
number of modulated genes associated to Response to stimuli [5]: 43
number of modulated genes associated to Signaling [5]: 26
number of 2-fold Up-regulated genes (feed 5 mg/g, 14 days): 583
number of genes with a 2-fold Down-regulated expression (feed 5 mg/g, 14 days): 262
Down-regulated genes in biological process Biological Regulation [6]: 9%
Down-regulated genes in biological process Cellular Component Organization or Biogenesis [6]: 7%
Down-regulated genes in biological process Cellular Process [6]: 20%
Down-regulated genes in biological process Developmental Process [6]: 5%
Down-regulated genes in biological process Localization [6]: 8%
Down-regulated genes in biological process Metabolic Process [6]: 20%
Down-regulated genes in biological process Multicellular Process [6]: 6%
Down-regulated genes in biological process Response to Stimulus [6]: 5%
Down-regulated genes in biological process Signaling [6]: 3%
Down-regulated genes in biological process Single-organism Process [6]: 17%
Down-regulated genes with molecular function Binding [6]: 44%
Down-regulated genes with molecular function Catalytic Activity [6]: 40%
Down-regulated genes with molecular function Enzyme Regulator Activity [6]: 3%
Down-regulated genes with molecular function Structural Molecule Activity [6]: 4%
Down-regulated genes with molecular function Transporter Activity [6]: 9%
Up-regulated genes in biological process Biological Regulation [7]: 9%
Up-regulated genes in biological process Cellular Component Organization or Biogenesis [7]: 7%
Up-regulated genes in biological process Cellular Processes [7]: 20%
Up-regulated genes in biological process Developmental Process [7]: 6%
Up-regulated genes in biological process Localization [7]: 7%
Up-regulated genes in biological process Metabolic Process [7]: 18%
Up-regulated genes in biological process Multicellular Organismal Process [7]: 6%
Up-regulated genes in biological process Response to Stimulus [7]: 6%
Up-regulated genes in biological process Signaling [7]: 4%
Up-regulated genes in biological process Single-organism Process [7]: 17%
Up-regulated genes with molecular function Binding Activity [7]: 44%
Up-regulated genes with molecular function Catalytic Activity [7]: 43%
Up-regulated genes with molecular function Structural Molecule Activity [7]: 6%
Up-regulated genes with molecular function Transporter Activity [7]: 7%
Number of spots, Expression Levels (Score) 1 to 1.5 [8]: 3,662
Number of spots, Expression Levels (Score) 1.5 to 2 [8]: 1,984
Number of spots, Expression Levels (Score) <−2 [8]: 1,434
Number of spots, Expression Levels (Score) >2 [8]: 1,650
Number of spots, Expression Levels (Score) −1.5 to −1 [8]: 3,221
Number of spots, Expression Levels (Score) −1.5 to −2 [8]: 1,259
Number of spots, No regulated genes (−1 to 1) [8]: 43,950
